{"source": "paper PMC4177084", "about": "(Journal of Thyroid Research, 2014)", "molecular_target": "T1, IGF1R (Homo sapiens, UniProt P08069)", "T1 construct": "purchased Carna Biosciences, Inc. (Kobe, Japan)", "T1 sequence (P08069 31-1367)": "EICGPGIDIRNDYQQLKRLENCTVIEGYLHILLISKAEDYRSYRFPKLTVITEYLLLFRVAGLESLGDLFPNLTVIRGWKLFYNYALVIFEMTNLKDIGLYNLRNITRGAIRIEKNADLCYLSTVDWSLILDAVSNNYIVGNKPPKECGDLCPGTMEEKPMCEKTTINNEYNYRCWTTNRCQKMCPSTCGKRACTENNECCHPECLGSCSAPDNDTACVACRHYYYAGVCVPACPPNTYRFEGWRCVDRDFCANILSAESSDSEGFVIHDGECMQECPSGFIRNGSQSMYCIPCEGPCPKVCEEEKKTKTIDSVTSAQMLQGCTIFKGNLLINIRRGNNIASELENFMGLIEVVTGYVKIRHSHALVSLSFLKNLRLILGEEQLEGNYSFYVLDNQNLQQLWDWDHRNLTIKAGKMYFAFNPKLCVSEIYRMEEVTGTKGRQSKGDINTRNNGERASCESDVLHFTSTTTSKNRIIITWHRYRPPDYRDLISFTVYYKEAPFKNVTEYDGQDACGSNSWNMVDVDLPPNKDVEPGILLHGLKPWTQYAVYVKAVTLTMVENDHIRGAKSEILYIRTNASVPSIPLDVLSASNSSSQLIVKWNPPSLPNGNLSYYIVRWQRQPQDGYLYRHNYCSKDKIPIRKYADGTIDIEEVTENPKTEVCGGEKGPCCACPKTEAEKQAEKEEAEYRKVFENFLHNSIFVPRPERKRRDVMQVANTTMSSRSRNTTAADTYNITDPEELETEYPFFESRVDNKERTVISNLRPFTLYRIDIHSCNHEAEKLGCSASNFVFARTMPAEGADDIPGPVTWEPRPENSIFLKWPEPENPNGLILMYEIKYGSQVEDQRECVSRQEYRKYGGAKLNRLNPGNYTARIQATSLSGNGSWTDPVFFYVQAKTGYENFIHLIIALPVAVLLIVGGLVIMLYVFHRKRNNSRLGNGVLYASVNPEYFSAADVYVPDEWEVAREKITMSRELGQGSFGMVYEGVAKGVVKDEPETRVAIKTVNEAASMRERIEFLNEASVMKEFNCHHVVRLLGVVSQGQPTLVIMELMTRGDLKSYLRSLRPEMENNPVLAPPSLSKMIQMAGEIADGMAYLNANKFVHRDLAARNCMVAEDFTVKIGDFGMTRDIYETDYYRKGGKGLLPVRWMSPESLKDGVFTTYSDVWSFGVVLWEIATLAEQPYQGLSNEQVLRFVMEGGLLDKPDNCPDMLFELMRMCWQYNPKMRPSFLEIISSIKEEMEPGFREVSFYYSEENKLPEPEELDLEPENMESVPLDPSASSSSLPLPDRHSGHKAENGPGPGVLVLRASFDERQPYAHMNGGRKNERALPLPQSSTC", "assay": "Cell free kinase inhibition assay", "format": "biochemical", "data": [{"compound": "COc1cc2nccc(Oc3ccc(NC(=O)NC4CC4)c(Cl)c3)c2cc1C(N)=O", "note": "[Lenvatinib, Lenvatinib mesilate]", "values": [{"measurement": "IC50", "value": "> 10", "unit": "µM"}]}]}
